In patent US20110112086A1, “PYRIDINONE ANALOGS” (CYLENE PHARMACEUTICALS, INC., priority 2006, published 2011):

Biological target: T1, nucleolin (Homo sapiens, UniProt P19338)
T1 construct: without the N-terminal acidic stretches domain
Test: Nucleolin/nucleic acid ligand gel retardation binding assay
Set-up: key: A “+” represents the weakest nucleolin affinity; a “++++” represents the strongest nucleolin affinity
Settings: relative affinity of nucleic acid ligand for recombinant nucleolin (MBP fusion)
Procedure: The following assays can be used to assess the effects of compounds on interactions between nucleolin and nucleic acid ligands capable of forming quadruplex (QP) and hairpin (HP) secondary structures. Nucleic acid ligands tested were a cMyc QP DNA having nucleotide sequence 5′-[…]-3′ and a HP pre-rRNA region to which nucleolin binds, having the sequence 5′-[…]-3′. In the assays, recombinant nucleolin (˜250 nM), which has been fused to maltose binding protein, and has the sequence under accession number NM_005381 without the N-terminal acidic stretches domain, is incubated with each of the two ^32P-labeled nucleic acid ligands (10 or 250 nM). Nucleolin and the nucleic acid ligand are incubated in the presence or absence of a test compound 7 in an incubation buffer (12.5 mM Tris, pH 7.6, 60 mM KCl, 1 mM MgCl2, 0.1 mM EDTA, 1 mM DTT, 5% glycerol, 0.1 mg/ml BSA) for 30 minutes at room temperature.
The resulting complexes are separated on a 6% DNA retardation gel using 0.5×TBE with 20 mM KCl as a running buffer. The assay also can be conducted using nucleic acid ligands derived from human ribosomal DNA, whereby one can identify a compound that selectively modulates formation of a nucleolin/nucleic acid complex that depends on the conformation of the nucleic acid. Sequences of suitable nucleic acids are shown in the preceding example. […] A “+” represents the weakest nucleolin affinity and a “++++” represents the strongest nucleolin affinity. […] Using nucleic acids such as these having known conformational properties, one can identify a compound such as the compounds described herein that selectively interferes with binding of nucleolin to a particular quadruplex structure.

T1 sequence (P19338 284-710 limits assumed): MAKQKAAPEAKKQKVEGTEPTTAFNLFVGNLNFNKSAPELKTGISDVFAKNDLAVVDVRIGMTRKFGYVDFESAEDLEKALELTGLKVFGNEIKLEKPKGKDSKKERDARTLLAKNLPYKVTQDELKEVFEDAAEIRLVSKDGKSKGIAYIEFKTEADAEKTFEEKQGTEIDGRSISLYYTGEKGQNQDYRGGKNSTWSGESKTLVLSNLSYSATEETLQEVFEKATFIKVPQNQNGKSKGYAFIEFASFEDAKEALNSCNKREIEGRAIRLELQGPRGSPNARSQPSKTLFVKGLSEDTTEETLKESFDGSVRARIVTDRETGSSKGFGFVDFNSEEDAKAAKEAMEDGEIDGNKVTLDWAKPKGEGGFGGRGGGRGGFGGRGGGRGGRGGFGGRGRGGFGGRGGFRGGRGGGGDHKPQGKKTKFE

Molecule	Affinity for Nucleolin
1196NT: nucleic acid ligand derived from human ribosomal DNA: GGGTGGACGGGGGGGCCTGGTGGGG (chemistry not given here) [Compound 1196NT]	+
6183NT: nucleic acid ligand derived from human ribosomal DNA: GGGTCGGGGGCGGTGGTGGGCCCGCGGGGG (chemistry not given here) [Compound 6183NT]	+
7733T: nucleic acid ligand derived from human ribosomal DNA: GGGAGGGGCACGGGCCGGGGGCGGGACGGG (chemistry not given here) [Compound 7733T]	+
8511NT: nucleic acid ligand derived from human ribosomal DNA: GGGGGTGGGCGGGCGGGGCCGGGGGTGGG (chemistry not given here) [Compound 8511NT]	++++
8749NT: nucleic acid ligand derived from human ribosomal DNA: GGGAGGGCGCGCGGGTCGGGG (chemistry not given here) [Compound 8749NT]	+
11028NT: nucleic acid ligand derived from human ribosomal DNA: GGGGCGCGGCGGGGGGAGAAGGGTCGGGGCGGCAGGGG (chemistry not given here) [Compound 11028NT]	+
8762NT: nucleic acid ligand derived from human ribosomal DNA: CGGAGGGCGCGCGGGTCGGGGCGGCGGCGGCGGCGGCGGTGGCGGCGGCGGCGGGGGCGGCGGG (nucleic acid, chemistry not given here) DNA: CGGAGGGCGCGCGGGTCGGGGCGGCGGCGGCGGCGGCGGTGGCGGCGGCGGCGGGGGCGGCGGG	++++

Test system: HCT-116
Test: HCT-116 MTS cell viability assay
Assay type: cell-based
Settings: Homo sapiens, HCT-116 cells

Molecule	IC50 [nM]
CCOC(=O)c1c(=O)c2cc(Cl)sc2n2c1sc1ccccc12	10000
CCOC(=O)c1c(=O)c2ccsc2n2c1[nH]c1ccccc12	10000
Cn1c2cc3ccccc3cc2n2c3sccc3c(=O)c(C(=O)NCCN3CCCC3)c12	300
CCOC(=O)c1c(=O)c2cc(Br)sc2n2c1sc1ccccc12	10000
CCOC(=O)c1c(=O)c2ccsc2n2c1[nH]c1cc3ccccc3cc12	4000

Second part, the molecule after the results:

IC50 [nM]	Molecule
40	O=C(NCCN1CCCC1)c1c(=O)c2ccsc2n2c1sc1ccccc12
2100	O=C(NCCN1CCOCC1)c1c(=O)c2ccsc2n2c1sc1ccccc12
2050	O=C(NCc1ccccn1)c1c(=O)c2ccsc2n2c1sc1ccccc12
10	O=C(NCCN1CCCC1)c1c(=O)c2cc(Cl)sc2n2c1sc1ccccc12
50	O=C(NCCN1CCCC1)c1c(=O)c2cc(N3CCCC3)sc2n2c1sc1ccccc12
9800	CCOC(=O)c1c(=O)c2ccsc2n2c1sc1ccccc12
3200	Cn1c2ccccc2n2c3sccc3c(=O)c(C(=O)NCCN3CCCC3)c12
